Read-outs that look alike come from different tables or passages of the source. Marks after values point to notes of the source that are not given here.
Legend:
[1] = system: Salmonella typhimurium TA98
[2] = system: Salmonella typhimurium TA97a; conditions: TA 97a
[3] = system: Salmonella typhimurium TA97a; conditions: for % inhibition / Number of revertants(M ± SD)/ plate: TA 97a
[4] = system: S. typhimurium strains TA98, TA100, TA102 and TA97a; conditions: HK 9.7 - 78.0 μg/plate, +S9 and −S9
[5] = system: Salmonella typhimurium TA102
[6] = system: Chinese hamster lung fibroblast V79 cells; set-up: method as in PMID 20452459; conditions: cited from earlier work
epimastigote forms = conditions: compared with benznidazole; cited from earlier work
[7] = system: Salmonella typhimurium TA102; assay: Ames test, antimutagenicity assay, TA102; format: cell-based
[8] = + S9, HK 19.5 μg/plate + 2-AA 1.25 μg/plate
[9] = + S9, HK 39.0 μg/plate + 2-AA 1.25 μg/plate
[10] = + S9, HK 58.5 μg/plate + 2-AA 1.25 μg/plate
[11] = + S9, HK 78.0 μg/plate + 2-AA 1.25 μg/plate
[12] = + S9, HK […] + 2-AA 1.25 μg/plate
[13] = TA 102, + S9, HK 19.5 μg/plate + 2-AF 10.0 μg/plate
[14] = TA 102, + S9, HK 39.0 μg/plate + 2-AF 10.0 μg/plate
[15] = TA 102, + S9, HK 58.5 μg/plate + 2-AF 10.0 μg/plate
[16] = TA 102, + S9, HK 78.0 μg/plate + 2-AF 10.0 μg/plate
[17] = TA 102, - S9, HK 58.5 μg/plate + MMC 0.5 μg/plate
[18] = TA 102, - S9, HK 78.0 μg/plate + MMC 0.5 μg/plate

## O=C1OC[C@H](Cc2ccc3c(c2)OCO3)[C@H]1Cc1ccc2c(c1)OCO2 [HK, (−)-hinokinin]
[1]; TA 98, + S9, HK 19.5 μg/plate
  MI (mutagenicity index): 1.1
  Number of revertants(M ± SD)/ plate: 34 ± 3 revertants/plate
[1]; TA 98, + S9, HK 39.0 μg/plate
  MI (mutagenicity index): 1.0
  Number of revertants(M ± SD)/ plate: 33 ± 4 revertants/plate
[1]; TA 98, + S9, HK 58.5 μg/plate
  MI (mutagenicity index): 0.8
  Number of revertants(M ± SD)/ plate: 28 ± 1 revertants/plate
[1]; TA 98, + S9, HK 78.0 μg/plate
  MI (mutagenicity index): 1.0
  Number of revertants(M ± SD)/ plate: 31 ± 2 revertants/plate
[1]; TA 98, - S9, HK 19.5 μg/plate
  MI (mutagenicity index): 1.0
  Number of revertants(M ± SD)/ plate: 23 ± 3 revertants/plate
[1]; TA 98, - S9, HK 39.0 μg/plate
  MI (mutagenicity index): 1.1
  Number of revertants(M ± SD)/ plate: 25 ± 3 revertants/plate
[1]; TA 98, - S9, HK 58.5 μg/plate
  MI (mutagenicity index): 1.1
  Number of revertants(M ± SD)/ plate: 25 ± 2 revertants/plate
[1]; TA 98, - S9, HK 78.0 μg/plate
  MI (mutagenicity index): 1.1
  Number of revertants(M ± SD)/ plate: 24 ± 5 revertants/plate
[2]; + S9, HK 19.5 μg/plate
  MI (mutagenicity index): 1.1
  Number of revertants(M ± SD)/ plate: 187 ± 3 revertants/plate
[2]; + S9, HK 39.0 μg/plate
  MI (mutagenicity index): 1.0
  Number of revertants(M ± SD)/ plate: 166 ± 5 revertants/plate
[2]; + S9, HK 58.5 μg/plate
  MI (mutagenicity index): 1.0
  Number of revertants(M ± SD)/ plate: 172 ± 2 revertants/plate
[2]; + S9, HK 78.0 μg/plate
  MI (mutagenicity index): 0.9
  Number of revertants(M ± SD)/ plate: 146 ± 4 revertants/plate
[2]; - S9, HK 39.0 μg/plate
  MI (mutagenicity index): 0.9
  Number of revertants(M ± SD)/ plate: 146 ± 5 revertants/plate
[2]; - S9, HK 58.5 μg/plate
  MI (mutagenicity index): 1.1
  Number of revertants(M ± SD)/ plate: 175 ± 4 revertants/plate
[2]; - S9, HK 78.0 μg/plate
  MI (mutagenicity index): 1.0
  Number of revertants(M ± SD)/ plate: 163 ± 8 revertants/plate
[3]; [8]
  % inhibition: 45*** %
  Number of revertants(M ± SD)/ plate: 659 + 41 revertants/plate
[3]; [9]
  % inhibition: 49*** %
  Number of revertants(M ± SD)/ plate: 628 + 16 revertants/plate
[3]; [10]
  % inhibition: 67*** %
  Number of revertants(M ± SD)/ plate: 456 + 13 revertants/plate
[3]; [11]
  % inhibition: 60*** %
  Number of revertants(M ± SD)/ plate: 523 + 86 revertants/plate
[3]; [12]
  % inhibition: 43*** %
  Number of revertants(M ± SD)/ plate: 682 + 52 revertants/plate
[3]; - S9, HK 19.5 μg/plate + NOPD 10.0 μg/plate
  Number of revertants(M ± SD)/ plate: 948 + 24 revertants/plate
[3]; - S9, HK 39.0 μg/plate + NOPD 10.0 μg/plate
  Number of revertants(M ± SD)/ plate: 979 + 84 revertants/plate
[3]; - S9, HK 58.5 μg/plate + NOPD 10.0 μg/plate
  Number of revertants(M ± SD)/ plate: 1006 + 54 revertants/plate
[3]; - S9, HK 78.0 μg/plate + NOPD 10.0 μg/plate
  Number of revertants(M ± SD)/ plate: 1026 + 75 revertants/plate
[3]; - S9, HK […] + NOPD 10.0 μg/plate
  Number of revertants(M ± SD)/ plate: 934 + 33 revertants/plate
[3]; TA97a, absence of metabolic activation
  effect on mutagenesis induced by NOPD: did not reduce mutagenesis
[3]; strain 97a, −S9, HK + NOPD
  potentiation of NOPD-induced effect (revertants vs positive control alone): potentiated NOPD -induced clastogenicity
[4]
  mutagenic activity (number of revertant colonies relative to the negative control): did not induce any increase in the number of revertant colonies
[5]; TA 102, + S9, HK 19.5 μg/plate
  Number of revertants(M ± SD)/ plate: 363 ± 3 revertants/plate
[5]; TA 102, + S9, HK 39.0 μg/plate
  MI (mutagenicity index): 0.9
  Number of revertants(M ± SD)/ plate: 354 ± 4 revertants/plate
[5]; TA 102, + S9, HK 58.5 μg/plate
  MI (mutagenicity index): 1.0
  Number of revertants(M ± SD)/ plate: 398 ± 9 revertants/plate
[5]; TA 102, + S9, HK 78.0 μg/plate
  MI (mutagenicity index): 1.0
  Number of revertants(M ± SD)/ plate: 402 ± 3 revertants/plate
[5]; TA 102, - S9, HK 19.5 μg/plate
  Number of revertants(M ± SD)/ plate: 231 ± 8 revertants/plate
[5]; TA 102, - S9, HK 39.0 μg/plate
  MI (mutagenicity index): 0.9
  Number of revertants(M ± SD)/ plate: 213 ± 4 revertants/plate
[5]; TA 102, - S9, HK 58.5 μg/plate
  MI (mutagenicity index): 0.8
  Number of revertants(M ± SD)/ plate: 201 ± 6 revertants/plate
[5]; TA 102, - S9, HK 78.0 μg/plate
  MI (mutagenicity index): 0.8
  Number of revertants(M ± SD)/ plate: 186 ± 2 revertants/plate
[6]; HK alone
  genotoxic effect, micronucleus test: no genotoxic effect
[6]
  effect on chromosome damage caused by MMS, micronucleus test: reduced the chromosome damage caused by MMS
[6]; higher concentrations of HK
  effect on DXR-induced clastogenicity, micronucleus test: potentiator of DXR-induced clastogenicity
[6]; lower concentrations of HK
  effect on DXR-induced clastogenicity, micronucleus test: reduction in DXR-induced clastogenicity
Epimastigote forms
  trypanosomicidal activity against epimastigote forms: higher trypanosomicidal activity than benznidazole
[7]
  Number of revertants(M ± SD)/ plate: 852 + 21 revertants/plate
[7]; [13]
  % inhibition: 42*** %
  Number of revertants(M ± SD)/ plate: 855 + 22 revertants/plate
[7]; [14]
  % inhibition: 46*** %
  Number of revertants(M ± SD)/ plate: 820 + 19 revertants/plate
[7]; [15]
  % inhibition: 52*** %
  Number of revertants(M ± SD)/ plate: 754 + 9 revertants/plate
[7]; [16]
  % inhibition: 52*** %
  Number of revertants(M ± SD)/ plate: 757 + 29 revertants/plate
[7]; TA 102, + S9, HK […] + 2-AF 10.0 μg/plate
  % inhibition: 42*** %
[7]; TA102, +S9, dose not given
  decrease in the mutagenicity of 2-AF: 52%
[7]; TA 102, - S9, HK 19.5 μg/plate + MMC 0.5 μg/plate
  Number of revertants(M ± SD)/ plate: 1201 + 23 revertants/plate
[7]; TA 102, - S9, HK 39.0 μg/plate + MMC 0.5 μg/plate
  Number of revertants(M ± SD)/ plate: 1317 + 14 revertants/plate
[7]; [17]
  % inhibition: 18* %
  Number of revertants(M ± SD)/ plate: 1017 + 56 revertants/plate
[7]; [18]
  % inhibition: 22* %
  Number of revertants(M ± SD)/ plate: 979 + 51 revertants/plate
[7]; TA 102, - S9, HK […] + MMC 0.5 μg/plate
  Number of revertants(M ± SD)/ plate: 1236 + 17 revertants/plate
[7]; TA102, absence of metabolic activation
  effect on mutagenesis induced by MMC: did not reduce mutagenesis

— PMC3545969, “Mutagenicity and antimutagenicity of (−)-hinokinin a trypanosomicidal compound measured by Salmonella microsome and comet assays” (BMC Complementary and Alternative Medicine, 2012)
